From patent publication US10710980B2, “Aminopyridine derivatives and their use as selective ALK-2 inhibitors” (priority 2016, dated 2020)
Structures can show the parent of a compound that is named as a salt.

How the values were obtained:
[1] = Dynamic Vapor Sorption, physical stability to humidity; assay type: physicochemical; conditions: for physical stability (DVS): 50%-0%-90% RH
[2] = Solubility (at 25° C., 24 h equilibration); assay type: physicochemical; conditions: for solubility: 25° C., 24 h

solubility ([2]; Water/7.2, target concentration 2 mg/mL): >2000 µg/mL | solubility at 24 h ([2]; borate buffer, 25 °C, pH 9, aqueous buffer, thermodynamic from solid, pH 9.0 borate buffer/8.6, 24 h, target concentration 2 mg/mL): 30 µg/mL | solubility ([2]; pH 1.0 1N HCl/1.1, target concentration 2 mg/mL): >2000 µg/mL | solubility ([2]; pH 2.0 HCl buffer 2.1, target concentration 2 mg/mL): >2000 µg/mL | solubility ([2]; pH 2.0 SGF/2.0, target concentration 2 mg/mL): >2000 µg/mL | solubility ([2]; pH 4.7 acetate buffer/4.8, target concentration 2 mg/mL): >2000 µg/mL | solubility ([2]; pH 5.8 FeSSIF/5.9, target concentration 2 mg/mL): >2000 µg/mL | solubility ([2]; pH 6.5 FaSSIF/6.5, target concentration 2 mg/mL): 1690 µg/mL | solubility ([2]; pH 6.8 phosphate buffer/6.8, target concentration 2 mg/mL): 1080 µg/mL
Structure (SMILES): Nc1ncc(-c2ccc([C@@]34C[C@@H]3CN(C3CCOCC3)C4)cc2)cc1C(=O)NC12CCC(O)(CC1)CC2 [Fumarate salt Modification HA, 2-amino-N-(4-hydroxybicyclo[2.2.2]octan-1-yl)-5-(4-((1R,5S)-3-(tetrahydro-2H-pyran-4-yl)-3-azabicyclo[3.1.0]hexan-1-yl)phenyl)nicotinamide]
physical stability (DVS) ([1]; 25° C.): physically stable at least from 0% to 90% RH | physical stability (DVS) ([1]; 40° C.): physically stable at least from 10% to 90% RH | humidity range of stability compared with free form polymorphs ([1]; data not shown): stable over a wider humidity range than free form polymorphs | solubility compared with free form Modification HA ([2]; aqueous buffers): better solubility than free form Modification HA in some aqueous buffers
